Data reported in paper PMC10959927, “Platinum iodido drugs show potential anti-tumor activity, affecting cancer cell metabolism and inducing ROS and senescence in gastrointestinal cancer cells” (Communications Biology, 2024).
Several values for one entry are separate records, joined by “and”; a condition that tells them apart may be missing. Equal values may be shown once.

Key:
AGS cells [1] = test: Seahorse XF OCR, ECAR and energy map; type: cell-based, human; conditions: AGS, IC50 24 h
Procedure: (§1) Oxygen Consumption Rate (OCR), Extra Cellular Acidification Rate (ECAR) and Energy map measurements. Cells were plated in XF HS Miniplates (Seahorse Bioscience) at a cellular density of 1 × 10^4 cells/well and incubated overnight. […] After an OCR baseline measurement, the minimum oxygen consumption was determined by adding 1.5 µM oligomycin (O) and the maximal respiration rate was assessed by adding 1 µM carbonyl cyanide p-trifluoro methoxyphenylhydrazone (FCCP, F). At the end of the experiment, the non-mitochondrial oxygen consumption was evaluated by adding both 0.5 µM rotenone (R) and antimycin (A). Experiments were run in a XF HS Mini analyzer (Seahorse Agilent), and raw data were normalized to total protein using a BCA protein assay kit (Cat. no. 23225, Thermo Scientific).

MKN45 cells [2] = test: Seahorse XF OCR, ECAR and energy map; type: cell-based, human; parameters: Basal resp. / Maximal resp. / SRC: unit not given here; conditions: MKN45, IC50 24 h
Procedure: as §1

PANC1 cells [3] = test: Seahorse XF OCR, ECAR and energy map; type: cell-based, human; parameters: Basal resp. / Maximal resp. / SRC: unit not given here; conditions: PANC1, IC50 24 h
Procedure: as §1

AGS cells [4] = test: ATP determination assay (bioluminescence); type: cell-based, human; conditions: replicates
Procedure: (§2) ATP determination assay. […] The analysis was performed using the ATP Bioluminescense Assay Kit CLS II (Cat. no. 11699695001, Roche) according to the manufacturer’s instructions. […] Data were normalized to total protein using the BCA protein assay kit (Thermo Scientific).

MKN45 cells [5] = test: ATP determination assay (bioluminescence); type: cell-based, human; conditions: replicates
Procedure: as §2

PANC1 cells [6] = test: ATP determination assay (bioluminescence); type: cell-based, human; conditions: replicates
Procedure: as §2

AGS cells [7] = test: Lactate production assay; type: cell-based, human; conditions: replicates
Procedure: (§3) Lactate production assay. […] Proteins were removed from 50 μL of the medium by adding 100 μL of 8% Percloric Acid and 40% EtOH at 4 °C, and centrifuging at 2 × 10^4 g for 10 min at 4 °C. The supernatants were then frozen until the lactate in 15 μL of each sample, or lactate standard, was measured mixed with 150 μl of assay buffer (0.5 M glycine [pH 9.5], 0.2 M Hydrazine, 3.4 mM EDTA), 100 μl of H20, 5 μL of 1100 U/mL LDH (Roche) and 30 μL of 15 mM NAD + . NADH production was evaluated by measuring absorbance at 340 nm in a multiplate reader (Synergy HT, Biotek) and it was proportional to the lactic acid concentration in the sample after a 2 h incubation. The lactate concentration was normalized to the total amount of protein measured with the Micro BCA Protein Assay Kit (Thermo Scientific). Assays were performed in triplicate in three independent experiments.

MKN45 cells [8] = test: Lactate production assay; type: cell-based, human; conditions: replicates
Procedure: as §3

PANC1 cells [9] = test: Lactate production assay; type: cell-based, human; conditions: replicates
Procedure: as §3

PANC1 cells [10] = test: ROS detection by confocal microscopy (DHE, MitoSox); type: cell-based, human; conditions: PANC1, 1 h treatment; H2O2 200 µM, CDDP 10 µM, I5 20 µM, I6 20 µM
Procedure: Tumor cells were seeded at a density of 3 × 10^5 cells in 15 µm 8-well IBIDI plates and incubated overnight. […] Subsequently, cells were stained with 10 μM of dihydroethidium (DHE, cytosolic O2^·- probe, Sigma-Aldrich) or with 5 μM of Mitosox (mitochondrial O2^·- probe, Sigma-Aldrich) for 15–30 min[79] and then visualized on a confocal microscope (Confocal LSM 710 Zeiss, Biomedical Research Institute Alberto Sols, IIBm-CSIC-UAM, Madrid, Spain). The image analysis was realized using the software program Image J.

C57Bl6 mice = test: Indirect calorimetry analyses (PhenoMaster); type: in vivo, mouse
Procedure: Indirect calorimetry analyses were carried out using a 16-chamber TSE PhenoMaster monitoring system (TSE Systems GmbH, Bad Homburg, Germany). Full access to food and water was continuously available, and intake was monitored using built-in devices located within each cage. Calorimetry measurements were carried out during a period of 72 h, according to animal weight, to exclude changes in body weight that would contribute to differences in energy expenditure measurements. […] Mice were introduced into individual chambers and were on a 12 h light-dark cycle (lights on at 07:00am) during the course of the experiment, with a maintained room temperature of 22 ± 2°C. Oxygen consumption and CO2 release was measured. From these values, respiratory exchange ratio (RER) was determined as VCO2/VO2 and energy expenditure (EE) was calculated as = ([…] + 1.232 x RER) x VO2. Locomotor activity was reported as the average light beam breaks (XT + YT) per min. XT and YT (T = total) were calculated from the sum of the ambulatory and fine movements. Water and food consumption (DRINK and FOOD, respectively, Fig. S8) were also monitored and recorded.

What does the source list for `CC(C)[NH][Pt@SP3]([I])([I])[NH]C(C)C` [I5, trans-[PtI2(isopropylamine)2]]?
effect on ECAR (AGS cells [1]): strong effect; OCR (AGS cells [1]; time 21.13 min (I5) / 21.08 min (I6)): 33.7993 pmoles/min/µg protein and 17.1923 pmoles/min/µg protein and 31.197 pmoles/min/µg protein; OCR (AGS cells [1]; time 60.15 min (I5) / 60.16 min (I6)): 22.0275 pmoles/min/µg protein and 13.2859 pmoles/min/µg protein and 22.5877 pmoles/min/µg protein; OCR (AGS cells [1]; time 66.63 min (I5) / 66.65 min (I6)): 21.2372 pmoles/min/µg protein and 12.4063 pmoles/min/µg protein and 20.3044 pmoles/min/µg protein; OCR (AGS cells [1]; time 73.12 min (I5) / 73.14 min (I6)): 19.5577 pmoles/min/µg protein and 11.425 pmoles/min/µg protein and 19.4877 pmoles/min/µg protein; Basal resp. (MKN45 cells [2]): 41.12 and 25.16 and 29.99; Maximal resp. (MKN45 cells [2]): 70.47 and 41.2 and 48.53; SRC (MKN45 cells [2]): 29.35 and 16.04 and 18.54; effect on ECAR (MKN45 cells [2]): strong effect; OCR (MKN45 cells [2]; time 1.53 min (I5) / 1.53 min (I6)): 87.0221 pmoles/min/µg protein and 65.8202 pmoles/min/µg protein and 67.2404 pmoles/min/µg protein; OCR (MKN45 cells [2]; time 8.04 min (I5) / 8.03 min (I6)): 81.395 pmoles/min/µg protein and 60.0787 pmoles/min/µg protein and 61.987 pmoles/min/µg protein; OCR (MKN45 cells [2]; time 14.51 min (I5) / 14.5 min (I6)): 68.3352 pmoles/min/µg protein and 45.5888 pmoles/min/µg protein and 48.6636 pmoles/min/µg protein; OCR (MKN45 cells [2]; time 40.66 min (I5) / 40.62 min (I6)): 96.0748 pmoles/min/µg protein and 62.8442 pmoles/min/µg protein and 67.0243 pmoles/min/µg protein; OCR (MKN45 cells [2]; time 53.68 min (I5) / 53.58 min (I6)): 97.9086 pmoles/min/µg protein and 60.6467 pmoles/min/µg protein and 66.2231 pmoles/min/µg protein; OCR (MKN45 cells [2]; time 60.27 min (I5) / 60.14 min (I6)): 32.7644 pmoles/min/µg protein and 24.8353 pmoles/min/µg protein and 23.7602 pmoles/min/µg protein; OCR (MKN45 cells [2]; time 66.75 min (I5) / 66.62 min (I6)): 29.7633 pmoles/min/µg protein and 21.9547 pmoles/min/µg protein and 20.2025 pmoles/min/µg protein; OCR (MKN45 cells [2]; time 73.23 min (I5) / 73.1 min (I6)): 27.2124 pmoles/min/µg protein and 20.4304 pmoles/min/µg protein and 18.6726 pmoles/min/µg protein; Basal resp. (PANC1 cells [3]): 4.37 and 2.91 and 2.68; effect on ECAR (PANC1 cells [3]): strong effect; OCR (PANC1 cells [3]; time 14.5 min (I5) / 14.5 min (I6)): 10.9576 pmoles/min/µg protein and 5.698 pmoles/min/µg protein and 5.804 pmoles/min/µg protein; OCR (PANC1 cells [3]; time 21.08 min (I5) / 21.07 min (I6)): 8.99 pmoles/min/µg protein and 4.967 pmoles/min/µg protein and 6.036 pmoles/min/µg protein; OCR (PANC1 cells [3]; time 60.22 min (I5) / 60.14 min (I6)): 6.526 pmoles/min/µg protein and 3.324 pmoles/min/µg protein and 3.875 pmoles/min/µg protein; ATP assay (AGS cells [4]): 8571 nmoles ATP/mg prot and 150.2 nmoles ATP/mg prot and 0.01 nmoles ATP/mg prot and 0.05 nmoles ATP/mg prot and 4895.31 nmoles ATP/mg prot and 5882.71 nmoles ATP/mg prot and 4424 nmoles ATP/mg prot and 7769.74 nmoles ATP/mg prot and 709.57 nmoles ATP/mg prot; ATP assay (MKN45 cells [5]): 11672 nmoles ATP/mg prot and 496.26 nmoles ATP/mg prot and 8257.16 nmoles ATP/mg prot and 8443 nmoles ATP/mg prot and 9557.85 nmoles ATP/mg prot and 7684.95 nmoles ATP/mg prot and 11572 nmoles ATP/mg prot and 11682.5 nmoles ATP/mg prot and 9034.25 nmoles ATP/mg prot; ATP assay (PANC1 cells [6]): 7640.3 nmoles ATP/mg prot and 496.05 nmoles ATP/mg prot and 2595.09 nmoles ATP/mg prot and 2106 nmoles ATP/mg prot and 8408.46 nmoles ATP/mg prot and 9059.04 nmoles ATP/mg prot and 9127 nmoles ATP/mg prot and 10292.6 nmoles ATP/mg prot and 9600 nmoles ATP/mg prot; lactate assay (AGS cells [7]): 1.16 Lactate mM/mg prot and 3.26 Lactate mM/mg prot and 1.86 Lactate mM/mg prot and 0.01 Lactate mM/mg prot and 0.05431 Lactate mM/mg prot and 0.02716 Lactate mM/mg prot and 0.02 Lactate mM/mg prot and 0.03 Lactate mM/mg prot; lactate assay (MKN45 cells [8]): 3.26 Lactate mM/mg prot and 4 Lactate mM/mg prot and 1.31 Lactate mM/mg prot and 1.423 Lactate mM/mg prot and 0.8373 Lactate mM/mg prot and 1.863 Lactate mM/mg prot and 1.55 Lactate mM/mg prot and 1.53 Lactate mM/mg prot and 1.48 Lactate mM/mg prot; lactate assay (PANC1 cells [9]): 5.32 Lactate mM/mg prot and 7.44 Lactate mM/mg prot and 7.29 Lactate mM/mg prot and 4.009 Lactate mM/mg prot and 7.435 Lactate mM/mg prot and 6.316 Lactate mM/mg prot and 4.98 Lactate mM/mg prot and 4.88 Lactate mM/mg prot and 4.97 Lactate mM/mg prot; DHE fluorescence intensity (per cell), cytosolic O2•− (PANC1 cells [10]): 90.3731 and 85.3678 and 75.6942 and 74.4248 and 73.3485 and 72.8941; RER, EE, locomotor activity, food and water intake vs untreated (C57Bl6 mice; C57Bl6 mice, 1.4 mg/kg i.v.): no differences were observed; DRINK (C57Bl6 mice; Fig. S8B left graph, individual mice): 4.49 mL and 10.13 mL and 7.81 mL and 7.64 mL and 8.16 mL
